Source: US4079135A, “Morpholine derivatives as antidepressants” (Imperial Chemical Industries Limited, priority 1973, dated 1978)
Where a name gives a salt, the structure may show the parent alone.

Legend:
[1] = Oral LD50 in mice; conditions: mouse, in vivo, dosed orally
Protocol: The compound of the invention 2-(4H-2,3-dihydro-1,4-benzoxazin-3-one-4-ylmethyl)morpholine hydrogen oxalate has an LD50 in mice of 800 mg./kg. when dosed orally.

[2] = system: reserpine-induced hypothermia in mice; test: RHL test: reversal of reserpine-induced hypothermia in mice; format: in vivo; conditions: 4 hours, over a large number of tests, reserpine 2 mg./kg. s.c. 17 h before
Protocol: This effect is the one primarily used in the art for establishing the relative antidepressant activity in a series of chemically-related compounds. […] Pharmacol., 1962, 14, 509. The RHL test is carried out as follows:-
Mice are kept in a constant temperature room maintained at 21° ± 1° C. Each member of groups of 4 mice is given reserpine (2 mg. of base per kg. bodyweight, given subcutaneously as the acetate). Seventeen hours later the oesophageal temperature (TO) of each mouse is recorded by means of an orally-inserted probe coupled to an electric thermometer which is calibrated in degree Centigrade and which can be read to 0.1° C. Immediately after the temperature measurement the mice are dosed orally with the test compound, or with imipramine, each mouse in a group of 4 being given the same substance, and the oesophageal temperatures are again recorded after 4 hours (T4). The compound under test is dosed at serial dilutions, e.g. 100, 30, 3, 1, 0.3, 0.1 mg./kg. Imipramine is used as the control. […] At 1 mg./kg. it produces an average rise of 1.7° C. A test compound which at a certain dose level gives a rise in temperature equal to or greater than that given by 1 mg./kg. of imipramine, dosed to a different set of mice on the same day, is adjudged "active" at that dose.

Row | Structure (SMILES) | LD50 [1] [mg/kg] | average rise in the temperature of a reserpinised mouse ([2]; 1 mg./kg. oral) [°C] | average rise in the temperature of a reserpinised mouse ([2]; 3 mg./kg. oral) [°C]
1 | O=C1COc2ccccc2N1CC1CNCCO1 (stereo not drawn) [2-(4H-2,3-dihydro-1,4-benzoxazin-3-one-4-ylmethyl)morpholine hydrogen oxalate] | 800 | – | –
2 | CN(C)CCCN1c2ccccc2CCc2ccccc21 [imipramine] | – | 1.7 | 3
